Experimental findings from patent publication US11311565B2, “Synergistic nutritional compositions for promoting axonal regeneration” (CELAGENEX RESEARCH (INDIA) PVT. LTD., priority 2020, dated 2022) are described below.

Molecules are shown by their SMILES.

Holding throughout (format): in vivo, Swiss albino mice
For assay [1], the system named is GAP-43. Kind of assay: SCI animal study: fold increase in plasticity protein GAP-43. Conditions: animals subjected to SCI, 6 animals per group. The text has this:
(§1) The purpose of this study is to evaluate the effect of the test substance in Swiss albino rats.
(§2) No. of animals: 30 Animals (5 groups of 6 animals each)
(§3) Group 1 is placebo, Group 2 was given a standard treatment of antithrombotic, antiepileptic, anti-inflammatory and steroid protocol (methylprednisolone) and Group 3, Group 4 and Group 5 served as test substance. Animals were subjected to SCI and outcome measures were monitored.

In assay [2] the test system is BDNF. Put plainly: SCI animal study: fold increase in plasticity protein BDNF. The conditions noted are these: animals subjected to SCI, 6 animals per group.
Text: as §1, §2, §3

The test system of assay [3] is NGF. Kind of assay: SCI animal study: fold increase in plasticity protein NGF. The conditions noted are these: animals subjected to SCI, 6 animals per group.
Text: as §1, §2, §3

Assay [4] has as its system NTF3. Kind of assay: SCI animal study: fold increase in plasticity protein NTF3. Conditions: animals subjected to SCI, 6 animals per group.
Text: as §1, §2, §3

Assay [5] concerns animals subjected to SCI. Put plainly: SCI animal study: improvement of limb movements. The conditions noted are these: baseline is 1.
Text: as §1, §2, §3

For assay [6], the system named is axons crossing denervated side. Kind of assay: SCI animal study: subjects with >1000 axons crossing denervated side. Conditions: animals subjected to SCI; % subjects.
Text: as §1, §2, §3
4. Subjects with >1000 axons crossing denervated side—as % subjects

In the case of `N=C(N)NCCCCN.O=S(=O)(O)O` [Test II, Agmatine Sulphate], the “No. of fold increase in plasticity proteins from baseline: GAP-43” value in assay [1] was 3.44 fold. Moreover, the “No. of fold increase in plasticity proteins from baseline: BDNF” value in assay [2] was 2.44 fold. Besides, the “No. of fold increase in plasticity proteins from baseline: NGF” value in assay [3] stood at 1.69 fold. Besides, the “No. of fold increase in plasticity proteins from baseline: NTF3” value in assay [4] is 1.17 fold. Further, the “Percentage improvement of limb movements to baseline (Baseline as 1)” value in assay [5] is 0.34. In assay [6], the “percentage of subjects with >1000 axons crossing denervated side” value was 18%.
